Measured values reported in patent US7858615B2, “(S)-(-)-1-(4-fluoroisoquinolin-5-Yl)Sulfonyl-2-methyl-1,4-homopiperazine hydrochloride dihydrate” (Kowa Co., Ltd., priority 2004, dated 2010).
Entries after “also recorded” stand apart in the source; their conditions may differ. Counter-ions that a name gives are not always drawn.

Key:
[1] = Test Example 1 (Thermal Stability): storage in sealed containers in thermostats; format: physicochemical; conditions: for Percent remain (%): sealed container
Description: The dihydrate of the present invention produced in Example 1 was placed in sealable containers such that each container included 1 g of the dihydrate. After sealing, these containers were maintained in thermostats at 40, 60, and 80° C. for 7 and 14 days, so as to evaluate thermal stability.

[2] = Test Example 2 (Hygroscopicity): weight increase in open weighing bottle at 25° C. and controlled RH; format: physicochemical; conditions: for hygroscopic stability in words: RH 33% or 92%, time-dependent; for water content reached with elapsed time: eventual value, hydrochloride
Description: Each of the dihydrate of the present invention produced in Example 1 and (S)-(−)-1-(4-fluoroisoquinolin-5-yl)sulfonyl-2-methyl-1,4-homopiperazine hydrochloride anhydrate (each 100 mg) was placed in a weighing bottle. The bottle was allowed to stand in a container maintained at 25° C. and an RH of 33% or 92%, with the container being opened. The weighing bottle was time-dependently weighed, to thereby determine increase in weight for evaluation of hygroscopicity. FIGS. 6 and 7 show the results.

SMILES	thermal stability in words ([1]; after storage at 40° C., 60° C., or 80° C. for two weeks)	Percent remain (%) ([1]; storage temp. 40° C., storage period 7 days)	Percent remain (%) ([1]; storage temp. 40° C., storage period 14 days)	Percent remain (%) ([1]; storage temp. 60° C., storage period 7 days)	Percent remain (%) ([1]; storage temp. 60° C., storage period 14 days)	Percent remain (%) ([1]; storage temp. 80° C., storage period 7 days)	Percent remain (%) ([1]; storage temp. 80° C., storage period 14 days)	thermal stability (decomposition or undesired reaction) in words ([1]; stored at 80° C. for two weeks)	hygroscopic stability in words [2]	change of water content (hygroscopic behavior) in words ([2]; relative humidity 92% RH, 14 days, hydrochloride dihydrate)	water content reached with elapsed time ([2]; relative humidity 92%)	water content reached with elapsed time ([2]; relative humidity 92%, listed as anhydrate) [%]	water content after seven days ([2]; relative humidity 92%, seven days) [%]
C[C@H]1CNCCCN1S(=O)(=O)c1cccc2cncc(F)c12 [dihydrate, (S)-(−)-1-(4-fluoroisoquinolin-5-yl)sulfonyl-2-methyl-1,4-homopiperazine hydrochloride dihydrate]	high thermal stability	100.0	99.6	99.6	99.8	99.8	99.8	does not decompose	excellent hygroscopic stability	constant; also recorded: no change in its water content	–	–	–
C[C@H]1CNCCCN1S(=O)(=O)c1cccc2cncc(F)c12.Cl [anhydrous crystals, (S)-(−)-1-(4-fluoroisoquinolin-5-yl)sulfonyl-2-methyl-1,4-homopiperazine hydrochloride]	–	–	–	–	–	–	–	–	poor hygroscopic stability	–	about 40%	40	40
